Measurements as given in patent US20070203149A1, “CCR5 ANTAGONISTS USEFUL FOR TREATING HIV” (Schering Corporation, priority 2006, published 2007).

How the values were obtained:
[1] = test system: primary R5 HIV 1 clinical isolates; assay: Inhibition of viral replication in human PBMCs infected with primary R5 HIV 1 clinical isolates; assay type: cell-based; settings: for IC50: Human immunodeficiency virus 1, PBMC, human PBMCs infected with primary R5 HIV 1 clinical isolates, read-out: median IC50, inhibition of viral replication
Method: This assay uses primary peripheral blood mononuclear cells or the stable U87-CCR5 cell line to determine the effect of anti-CCR5 compounds to block infection of primary HIV-1 strains. The primary lymphocytes are purified from normal healthy donors and stimulated in vitro with PHA and IL-2 three days prior to infection. Using a 96-well plate format, cells are pretreated with drug for 1 hour at 37° C. and subsequently infected with an M-tropic HIV-1 isolates. Following infection, the cells are washed to remove residual inoculum and cultured in the presence of compound for 4 days. Culture supernatants are harvested and viral replication measured by determination of viral p24 antigen concentration.

[2] = Human rising single dose study: metabolite profiling of plasma and urine by LC-MS/MS after oral compound of formula A; assay type: in vivo
Method: (M5a/M5b/M5c/M5d are potential rotamers of the compound of Formula I)
In a human rising single dose study, plasma levels of the compound of formula I relative to the compound of formula A were assessed in blood samples drawn at 2, 8, and 24 hr following oral administration of the compound of formula A. An in-house metabolite profiling method using LC-MS/MS detection was employed for this assessment. Based on this qualitative assessment of the compound of formula I in human plasma, the concentrations of the compound of formula I are projected to be up to 3-fold higher than the compound of formula A in human plasma (see FIG. 5). This is considered to be a surprising and unexpected result.

Row | Structure (SMILES) | IC50 [1] | in vitro potency relative to the compound of formula A ([1]; human PBMCs, primary R5 HIV 1 isolates, ratio of median IC50 values) | metabolite status in human urine ([2]; 0-24 hr urine, single oral 50 mg compound of Formula A, healthy male volunteers) | metabolite status in clinical samples ([2]; first-in-man studies after administration of compound of formula A) | plasma concentration relative to the compound of formula A ([2]; human plasma, samples at 2, 8 and 24 hr after oral compound of formula A, projected from qualitative assessment) | metabolite status in human plasma ([2]; plasma 2 hr, single oral 50 mg compound of Formula A, healthy male volunteers) | susceptibility to further metabolism ([2]; stated as consequence of being a major metabolite)
1 | Cc1nc[n+]([O-])c(C)c1C(=O)N1CCC(C)(N2CCN([C@@H](c3cccc(F)c3)C3CCN(S(=O)(=O)C4CC4)CC3)[C@@H](C)C2)CC1 [compound of formula I] | 8 nM | approximately ⅛ | significant metabolite | major metabolite | up to 3 fold | significant metabolite | less susceptible to further rapid metabolism
2 | COC[C@@H](c1ccc(C(F)(F)F)cc1)N1CCN(C2(C)CCN(C(=O)c3c(C)ncnc3C)CC2)C[C@@H]1C [SCH-417690, reference compound] | 7.5 nM | – | – | – | – | – | –
3 | Cc1ncnc(C)c1C(=O)N1CCC(C)(N2CCN([C@@H](c3cccc(F)c3)C3CCN(S(=O)(=O)C4CC4)CC3)[C@@H](C)C2)CC1 [compound of formula A, reference compound] | 1 nM | – | – | – | – | – | –
